{"source": "paper PMC7465636", "about": "(Biomolecules, 2020)", "origin": "cited, not measured here", "key": {"P. falciparum Dd2": {"system": "P. falciparum Dd2", "conditions": "cited from earlier work"}, "P. falciparum D10": {"system": "P. falciparum D10", "conditions": "cited from earlier work"}, "P. falciparum W2": {"system": "P. falciparum W2", "conditions": "cited from earlier work"}, "[1]": {"system": "knockout of P. falciparum PfSR25", "design": "method as in PMID 28842684", "conditions": "knockout versus wild type; cited from earlier work"}}}
{"compound": "CN(C)C(Cn1cc(-c2ccccc2)nn1)NCc1ccccc1Cl", "note": "(stereo not drawn) [II]", "values": [{"measurement": "IC50", "setting": "P. falciparum Dd2", "value": 13, "unit": "µM"}, {"measurement": "IC50", "setting": "P. falciparum D10", "value": 11.3, "unit": "µM"}]}
{"compound": "O=C(Cn1cc(CNc2ccnc3cc(Cl)ccc23)nn1)N1CCCCC1", "note": "[IV]", "values": [{"measurement": "IC50", "setting": "P. falciparum Dd2", "value": 0.0434, "unit": "µM"}, {"measurement": "IC50", "setting": "P. falciparum D10", "value": 0.0136, "unit": "µM"}]}
{"compound": "COc1cc([N+](=O)[O-])ccc1-n1cc(COC2=C(CC=C(C)C)C(=O)C=C(C)C2=O)nn1", "note": "[V]", "values": [{"measurement": "IC50", "setting": "P. falciparum W2", "value": 4.1, "unit": "µM"}]}
{"compound": "Clc1ccc2c(N3CCN(CCCN4CCN(c5ccnc6cc(Cl)ccc56)CC4)CC3)ccnc2c1", "note": "[piperaquine]", "values": [{"measurement": "susceptibility of PfSR25 knockout parasite to the drug", "setting": "[1]", "value": "more susceptible"}]}
